Source: patent US20050221328A1, “Inhibitors of inflammatory gene activity and cholesterol biosynthesis” (Wyeth, priority 2002, published 2005)

What was measured:
HepG2 cells = assay: Gene expression in HepG2 cells treated 24 hr with CDCA or GW 4064; assay type: cell-based, human
Experimental: HepG2 cells were maintained in growth media at 37° C. in a 5% CO2 incubator. The cells were seeded in deficient growth media (phenol red free DMEM (Gibco BRL) supplemented with heat-inactivated 10% FBS, 1% Glutamax, 1% MEM non-essential amino acids, 100 U/ml penicillin and 100 μg/ml streptomycin) at 4-5×10^5 cells per well in a 6 well dish (Falcon). The cells were then placed into serum deficient media for 24 hr before addition of the compounds for an additional 24 hrs. The cells were then harvested for RNA analysis.
To further investigate the possibility that bile acid signaling through FXR can promote inflammatory gene expression, experiments were conducted in the hepatocyte cell line, HepG2. […] HepG2 cells express a number of inflammatory genes including ICAM-1 and M-CSF constitutively (Stonans et al '99 Cytokine 11:151). […] As positive controls, the induction of SHP mRNA and the repression of cyp7a were confirmed.
Referring to FIG. 24a-b, HepG2 cells were treated for 24 hr with increasing concentrations of chenodeoxycholic acid (CDCA). […] Data are reported as mean±SEM for each group. C57BL/6 mice. […] Data are reported as mean±SEM for each group.

human ICAM-1 promoter = assay: ICAM-1 promoter luciferase reporter in HepG2 cells transfected with human FXR and RXRα; assay type: cell-based; details: HepG2 transfections, GW 4064 1 uM, 24 or 48 hr; required proximal NF-κB response element
Excerpt: Referring to FIG. 26, HepG2 cells were transfected with the human FXR and RXRα expression plasmid and luciferase reporter plasmids containing the proximal promoter region of the human SHP (−360 to +40) or sequential deletions of the human ICAM-1 promoter (−1108 or −810 to +18). […] Data represent the mean+S.D. of three independent transfections.

ICAM-1 = assay: Hepatic mRNA levels after single oral dose of GW 4064 in C57BL/6 mice; assay type: in vivo, mouse; details: single oral dose 50 mg/kg, hepatic mRNA (FIG. 25)
[1] = HepG2, 24 hr, CDCA 1-100 uM or GW 4064 1-1000 nM

EC50 observed for ICAM-induction vs cited FXR EC50 (HepG2 cells; HepG2): comparable
cyp7a expression (HepG2 cells; HepG2, 24 hr, positive control): repression
Compound: CC(C)c1onc(-c2c(Cl)cccc2Cl)c1COc1ccc(/C=C/c2cccc(C(=O)O)c2)c(Cl)c1 [GW 4064]
ICAM-1 expression (HepG2 cells; [1]): induced in a dose dependent manner
M-CSF expression (HepG2 cells; [1]): induced in a dose dependent manner
SHP mRNA (HepG2 cells; HepG2, 24 hr, positive control): induction
ICAM-1 promoter activity (human ICAM-1 promoter): stimulated
ICAM-1 expression in vivo (ICAM-1): induces
